Values quoted from earlier work in patent publication US7163917B2, “Synthesis method of alanylglutamine” (priority 2002, dated 2007).
Peptide text beside a SMILES is read from it.

Columns and labels:
[1] = background statement
[2] = solution, storage, heating to sterilize
[3] = within human body; quickly degraded into composition amino acids
[4] = healthy human body, long period intravenous drip

SMILES: CC(=O)N[C@@H](CCC(N)=O)C(=O)O [acetylglutamine, reference compound]
- quantity absorbed that is excreted from urea [1]: 40%
- stability (in words) [2]: stable at heating

SMILES: NC(=O)CC[C@H](N)C(=O)O [GLN, glutamine]
- solubility (in words): low in solubility

SMILES: NCC(=O)N[C@@H](CCC(N)=O)C(=O)O [glycylglutamine, L-glycyl-L-glutamine, reference compound] (H-Gly-Gln-OH)
- half-life (in words) [3]: short

SMILES: C[C@H](N)C(=O)N[C@@H](CCC(N)=O)C(=O)O [L-Ala-L-Gln, L-alanyl-L-glutamine] (H-Ala-Gln-OH)
- stability (in words) [2]: stable in storage and at heating for sterilization
- kidney functions [4]: not influenced
- side effects and harmful reaction [4]: no side effects and harmful reaction occur
- half-life (in words) [3]: short
- solubility relative to GLN monomer (synthesized by chemical method, after purification): 20 times
